From ChEMBL document CHEMBL4706481, “Optimization and evaluation of novel tetrahydropyrido[4,3-d]pyrimidine derivatives as ATX inhibitors for cardiac and hepatic fibrosis” (Eur J Med Chem, 2020)
The source made the active and inactive calls. No cut-off for these calls is given here.

What was measured:
[1] = Antiproliferative activity against Wistar/Sprague-Dawley rat cardiac fibroblasts assessed as inhibition of cell proliferation at 10 uM measured after 24 hrs by MTT assay relative to control; type: functional, CF [Rat heart fibroblast]; conditions: Fibroblast
Autotaxin [2] = target: T1, Autotaxin (Homo sapiens, UniProt Q13822); test: Inhibition of glycosylated human ATX using FS-3 as substrate preincubated for 45 mins under shaking condition followed by substrate addition and measured after 45 mins by fluorescence assay
[3] = Antiproliferative activity against Sprague-Dawley rat T-HSC/Cl-6 assessed as inhibition of cell proliferation at 10 uM measured after 24 hrs by MTT assay relative to control; type: functional
[4] = Antiproliferative activity against Wistar/Sprague-Dawley rat cardiac fibroblasts assessed as inhibition of cell proliferation measured after 24 hrs by MTT assay; type: functional, CF [Rat heart fibroblast]; conditions: Fibroblast
[5] = Antiproliferative activity against Sprague-Dawley rat T-HSC/Cl-6 assessed as inhibition of cell proliferation measured after 24 hrs by MTT assay; type: functional; conditions: T-HSC/Cl-6, 24 h
Mus musculus [6] = test: Antifibrotic activity against CCl4-induced fibrosis in Kunming mouse assessed as decrease in steatosis at 20 mg/kg, po administered for 2 weeks post CCl-4 challenge by Mason staining based light microscopic analysis; type: functional, organism-based
Cardiac fibroblast = test: Antifibrotic activity against TGFbeta-induced fibrosis in mouse cardiac fibroblasts assessed as reduction in collagen content at 10 ug/ml pretreated with TGFbeta followed by compound treatment and measured after 12 hrs by SDS-PAGE analysis; type: functional; conditions: dose 10.0 µg/ml
Mus musculus [7] = test: Antifibrotic activity against CCl4-induced fibrosis in Kunming mouse assessed as decrease in fiber accumulation at 20 mg/kg, po administered for 2 weeks post CCl-4 challenge by Masson staining based light microscopic analysis; type: functional, organism-based
Mus musculus [8] = test: Antifibrotic activity against CCl4-induced fibrosis in Kunming mouse assessed as loss of fiber accumulation at 40 mg/kg, po administered for 2 weeks post CCl-4 challenge by Masson staining based light microscopic analysis; type: functional, organism-based
Mus musculus [9] = test: Antifibrotic activity against CCl4-induced fibrosis in Kunming mouse assessed as loss of inflammatory cells at 40 mg/kg, po administered for 2 weeks post CCl-4 challenge by hematoxylin and eosin staining based light microscopic analysis; type: functional, organism-based
Mus musculus [10] = test: Antifibrotic activity against CCl4-induced fibrosis in Kunming mouse assessed as loss of bile ductules at 40 mg/kg, po administered for 2 weeks post CCl-4 challenge by Masson staining based light microscopic analysis; type: functional, organism-based
Mus musculus [11] = test: Antifibrotic activity against CCl4-induced fibrosis in Kunming mouse assessed as decrease in steatosis at 20 mg/kg, po administered for 2 weeks post CCl-4 challenge by hematoxylin and eosin staining based light microscopic analysis; type: functional, organism-based
Mus musculus [12] = test: Antifibrotic activity against CCl4-induced fibrosis in Kunming mouse assessed as loss of inflammatory cells at 40 mg/kg, po administered for 2 weeks post CCl-4 challenge by Masson staining based light microscopic analysis; type: functional, organism-based
Mus musculus [13] = test: Antifibrotic activity against CCl4-induced fibrosis in Kunming mouse assessed as loss of fiber accumulation at 40 mg/kg, po administered for 2 weeks post CCl-4 challenge by hematoxylin and eosin staining based light microscopic analysis; type: functional, organism-based
Mus musculus [14] = test: Antifibrotic activity against CCl4-induced fibrosis in Kunming mouse assessed as decrease in inflammatory cells infiltration at 20 mg/kg, po administered for 2 weeks post CCl-4 challenge by Masson staining based light microscopic analysis; type: functional, organism-based
Mus musculus [15] = test: Antifibrotic activity against CCl4-induced fibrosis in Kunming mouse assessed as decrease in fiber accumulation at 20 mg/kg, po administered for 2 weeks post CCl-4 challenge by hematoxylin and eosin staining based light microscopic analysis; type: functional, organism-based
Mus musculus [16] = test: Antifibrotic activity against CCl4-induced fibrosis in Kunming mouse assessed as decrease in inflammatory cells infiltration at 20 mg/kg, po administered for 2 weeks post CCl-4 challenge by hematoxylin and eosin staining based light microscopic analysis; type: functional, organism-based
Mus musculus [17] = test: Antifibrotic activity against CCl4-induced fibrosis in Kunming mouse assessed as loss of bile ductules at 40 mg/kg, po administered for 2 weeks post CCl-4 challenge by hematoxylin and eosin staining based light microscopic analysis; type: functional, organism-based
Autotaxin [18] = target: T1, Autotaxin; test: Inhibition of human ATX using FS-3 as substrate measured after 30 mins by fluorescence plate reader assay
[19] = Antifibrotic activity against TGFbeta-induced fibrosis in mouse cardiac fibroblasts assessed as reduction in collagen content at 10 ug/ml pretreated with TGFbeta followed by compound treatment and measured after 12 hrs by SDS-PAGE analysis relative to control; type: functional, Cardiac fibroblast; set-up: scale not given: the % may be the effect or the level left; conditions: dose 10 µg/ml

| Compound | IC50 (Autotaxin [2]) | inhibition at 10 µM [1] | inhibition at 10 µM [3] | other results |
| --- | --- | --- | --- | --- |
| O=C(N/N=C/c1ccc(OC(F)(F)F)cc1)N1CCc2ncnc(Nc3cccc(C(F)(F)F)c3)c2C1 | 41.2 nM | 67.1% | 65% | – |
| Cc1ccc(/C=N/NC(=O)N2CCc3ncnc(Nc4cccc(Br)c4)c3C2)cc1C | – | 41.7% | 49.2% | – |
| O=C(N/N=C/c1ccc(OC(F)(F)F)cc1)N1CCc2ncnc(Nc3cccc(Br)c3)c2C1 | – | 48.8% | 54.8% | – |
| O=C(N/N=C/c1ccc(F)c(Cl)c1)N1CCc2ncnc(Nc3cccc(Br)c3)c2C1 | – | 45.1% | 60.3% | – |
| O=C(N/N=C/c1cc(F)c(F)cc1Cl)N1CCc2ncnc(Nc3cccc(Br)c3)c2C1 | – | 41.7% | 56.7% | – |
| O=C(N/N=C/c1ccccc1)N1CCc2ncnc(Nc3cccc(C(F)(F)F)c3)c2C1 | – | 48.3% | 57.4% | – |
| O=C(N/N=C/c1ccco1)N1CCc2ncnc(Nc3cccc(C(F)(F)F)c3)c2C1 | – | 54.1% | 71.5% | – |
| O=C(N/N=C/c1cc(C(F)(F)F)cc(C(F)(F)F)c1)N1CCc2ncnc(Nc3cccc(C(F)(F)F)c3)c2C1 | – | 42.5% | 62.9% | – |
| O=C(N/N=C/c1ccc[nH]1)N1CCc2ncnc(Nc3cccc(C(F)(F)F)c3)c2C1 | – | 51.3% | 68.8% | – |
| Cc1cc(C)c(/C=N/NC(=O)N2CCc3ncnc(Nc4ccc(F)c(Cl)c4)c3C2)c(C)c1 | – | 54% | 58.1% | – |
| O=C(N/N=C/c1cc(C(F)(F)F)cc(C(F)(F)F)c1)N1CCc2ncnc(Nc3cccc(Br)c3)c2C1 | 29.1 nM | 70.1% | 62.1% | – |
| O=C(N/N=C/c1cccnc1)N1CCc2ncnc(Nc3cccc(C(F)(F)F)c3)c2C1 | – | 41.2% | 63.2% | – |

Second part, led by results:

| IC50 (Autotaxin [2]) | Compound | inhibition at 10 µM [1] | inhibition at 10 µM [3] | other results |
| --- | --- | --- | --- | --- |
| 35.8 nM | CS(=O)(=O)c1ccc(/C=N/NC(=O)N2CCc3ncnc(Nc4cccc(C(F)(F)F)c4)c3C2)cc1 | 45.9% | 61.5% | – |
| 21 nM | CS(=O)(=O)c1ccc(/C=N/NC(=O)N2CCc3ncnc(Nc4ccc(F)c(Cl)c4)c3C2)cc1 | 66.2% | 60.3% | – |
| 30.2 nM | O=C(N/N=C/c1cccc(C(F)(F)F)c1)N1CCc2ncnc(Nc3cccc(Br)c3)c2C1 | 51.8% | 64.8% | – |
| 29.1 nM | Cc1ccc(/C=N/NC(=O)N2CCc3ncnc(Nc4cccc(C(F)(F)F)c4)c3C2)cc1 | 72.6% | 77.2% | IC50 [4]: 1510 nM; IC50 [5]: 1140 nM |
| 15.3 nM | O=C(N/N=C/c1ccc(Cl)cc1)N1CCc2ncnc(Nc3cccc(C(F)(F)F)c3)c2C1 | 73.8% | 83.7% | Activity (Mus musculus [6]): Active; Activity (Cardiac fibroblast): Active; Activity (Mus musculus [7]): Active; Activity (Mus musculus [8]): Active; Activity (Mus musculus [9]): Active; Activity (Mus musculus [10]): Active; IC50 [4]: 1210 nM; Activity (Mus musculus [11]): Active; Activity (Mus musculus [12]): Active; Activity (Mus musculus [13]): Active; Activity (Mus musculus [14]): Active; Activity (Mus musculus [15]): Active; Activity (Mus musculus [16]): Active; Activity (Mus musculus [17]): Active; IC50 [5]: 780 nM |
| 33.9 nM | O=C(N/N=C/c1ccc(Cl)cc1Cl)N1CCc2ncnc(Nc3cccc(C(F)(F)F)c3)c2C1 | 58.5% | 66.3% | – |
| 43.8 nM | O=C(N/N=C/c1cc([N+](=O)[O-])ccc1Cl)N1CCc2ncnc(Nc3ccc(F)c(Cl)c3)c2C1 | 72.1% | 74.7% | – |
| 34.7 nM | CS(=O)(=O)c1ccc(/C=N/NC(=O)N2CCc3ncnc(Nc4cccc(Br)c4)c3C2)cc1 | 43.7% | 55% | – |
| 26.9 nM | O=C(N/N=C/c1ccc(F)cc1Cl)N1CCc2ncnc(Nc3cccc(C(F)(F)F)c3)c2C1 | 55.2% | 70.6% | – |
| 10.4 nM | O=C(CCc1nc2ccccc2s1)N1CCc2ncnc(Cc3ccc(F)cc3)c2C1 | 68.4% | 73.8% | IC50 (Autotaxin [18]): 29.1 nM |
| 27.5 nM | O=C(N/N=C/c1ccc(Cl)cc1)N1CCc2ncnc(Nc3cccc(Br)c3)c2C1 | 61.1% | 72.5% | – |
| 31.3 nM | O=C(N/N=C/c1ccc(O)c(Br)c1)N1CCc2ncnc(Nc3ccc(F)c(Cl)c3)c2C1 | 69% | 72% | – |
| 24.2 nM | O=C(N/N=C/c1ccc(Cl)cc1)N1CCc2ncnc(Nc3ccc(F)c(Cl)c3)c2C1 | 81.5% | 79.4% | Activity (Cardiac fibroblast): Active; Activity [19]: 74.4%; IC50 [4]: 870 nM; IC50 [5]: 1100 nM |
| 35.3 nM | O=C(N/N=C/c1cccc(Br)c1)N1CCc2ncnc(Nc3cccc(C(F)(F)F)c3)c2C1 | 54.6% | 68.1% | – |
